Experimental data reported in ChEMBL document CHEMBL1136231, “Synthesis of a novel family of diterpenes and their evaluation as anti-inflammatory agents” (Bioorg Med Chem Lett, 2003).
In brackets after ≈: the same amount, converted by molar mass. Activity calls are given as the source filed them. The rule behind the calls is not given here.

Columns and labels:
Format in all cases: functional
[1] = Inhibition of TNF-alpha was tested in HPBMC (Human Peripheral Blood Mononuclear Cells); Inactive
Homo sapiens [2] = species: Homo sapiens; experiment: (§1) Cytotoxicity in HPBMC (Human Peripheral Blood Mononuclear Cells); Not active
Homo sapiens [3] = species: Homo sapiens; experiment: Inhibition efficacy of TNF-alpha was tested in HPBMC (Human Peripheral Blood Mononuclear Cells); Not active
[4] = Inhibition of TNF-alpha was tested in HPBMC (Human Peripheral Blood Mononuclear Cells)
[5] = (§2) Cytotoxicity in HPBMC (Human Peripheral Blood Mononuclear Cells); parameters: concentration or dose not given beside the values
[6] = Inhibition efficacy of TNF-alpha was tested in HPBMC (Human Peripheral Blood Mononuclear Cells); parameters: concentration or dose not given beside the values
[7] = as §2
[8] = Inhibition of TNF-alpha was tested in HPBMC (Human Peripheral Blood Mononuclear Cells); In active
[9] = as §1
[10] = Inhibition of TNF-alpha was tested in HPBMC (Human Peripheral Blood Mononuclear Cells); inactive

| Structure (SMILES) | IC50 [1] | Efficacy (Homo sapiens [2]) | Efficacy (Homo sapiens [3]) | IC50 [4] | Efficacy [5] | Efficacy [6] | EC50 [7] | IC50 [8] | EC50 [9] | IC50 [10] |
| --- | --- | --- | --- | --- | --- | --- | --- | --- | --- | --- |
| C[C@]1(C(=O)O)CCC[C@]2(C)c3cc(O)ccc3CC[C@@H]12 [PODOCARIC ACID] | Not Active | inactive | inactive | – | – | – | – | – | – | – |
| C=C[C@]1(C)CCC=C2[C@H]1CC[C@@H]1[C@](C)(C(=O)OC)CCC[C@@]21C | – | – | – | 1.4 µg/mL (≈ 4.42 µM) | 71% | 99% | 3.1 µg/mL (≈ 9.8 µM) | – | – | – |
| C=C[C@]1(C)CCC=C2[C@H]1CC[C@@H]1[C@](C)(C(=O)O)CCC[C@@]21C | – | – | – | 3.7 µg/mL (≈ 12.2 µM) | 35% | 86% | – | – | – | – |
| C=C[C@@]1(C)CCC=C2[C@H]1CC[C@@H]1[C@](C)(C(=O)O)CCC[C@@]21C | – | – | – | 5.7 µg/mL (≈ 18.8 µM) | 66% | 90% | 7.8 µg/mL (≈ 25.8 µM) | – | – | – |
| COC(=O)[C@]1(C)CCC[C@@]2(C)C3=CCC[C@](C)(CO)[C@@H]3CC[C@H]12 | – | inactive | inactive | – | – | – | – | Not Active | Not Active | – |
| C=C[C@@]1(C)CCC=C2[C@H]1CC[C@@H]1[C@](C)(C(=O)OC)CCC[C@@]21C | – | – | – | 0.7 µg/mL (≈ 2.21 µM) | 98% | 99% | 1.8 µg/mL (≈ 5.69 µM) | – | – | – |
| C=C[C@@]1(C)CCC=C2[C@H]1CC[C@@H]1[C@](C)(CO)CCC[C@@]21C | – | inactive | – | 2.3 µg/mL (≈ 7.97 µM) | – | 38% | – | – | – | – |
| C=C[C@]1(C)CCC=C2[C@H]1CC[C@@H]1[C@](C)(CO)CCC[C@@]21C | – | – | – | 2.2 µg/mL (≈ 7.63 µM) | 93% | 99% | 2.3 µg/mL (≈ 7.97 µM) | – | – | – |
| C=C[C@@]1(C)CCCC2=C1CC[C@@H]1[C@](C)(C(=O)OC)CCC[C@@]21C | – | inactive | – | 0.6 µg/mL (≈ 1.9 µM) | – | 47% | – | – | – | – |
| C=C[C@@]1(C)CCCC2=C1CC[C@@H]1[C@](C)(C(=O)O)CCC[C@@]21C | – | – | – | 2.8 µg/mL (≈ 9.26 µM) | 99% | 98% | 2.2 µg/mL (≈ 7.27 µM) | – | – | – |
| C=C[C@@]1(C)CC(=O)[C@]2(O)[C@@]3(C)[C@@H](O)CCC(C)(C)[C@@H]3[C@H](O)[C@H](OC(C)=O)[C@@]2(C)O1 [COLFORSIN] | – | inactive | inactive | – | – | – | – | – | – | Not Active |
| C=C[C@@]1(C)CCCC2=C1CC[C@@H]1[C@](C)(CO)CCC[C@@]21C | – | – | – | 3.1 µg/mL (≈ 10.7 µM) | 99% | 99% | 3.4 µg/mL (≈ 11.8 µM) | – | – | – |
